{"source": "paper PMC8333425", "about": "“Discovery of a dual Ras and ARF6 inhibitor from a GPCR endocytosis screen” (Nature Communications, 2021)", "assay_in_all_cases": "KINOMEscan kinase binding assay", "key": {"[1]": {"target": "T1, 384 kinases from the human genome (Homo sapiens, UniProt O75385)", "T1 construct": "purchased Eurofin/DiscoverX", "conditions": "kinase ULK1 (Entrez ULK1)", "outline": "(§1)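 A panel of 384 human kinases was profiled by KINOMEscan binding in the presence of 10 µM compound. Kinase–ligand binding was given as percent of DMSO control, averaged from duplicates in a single run, with an S(10) selectivity score.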"}, "[2]": {"target": "T2, 384 kinases from the human genome (Homo sapiens, UniProt P21860)", "T2 construct": "purchased Eurofin/DiscoverX", "conditions": "kinase ERBB3 (Entrez ERBB3)", "outline": "as §1"}, "[3]": {"target": "T3, 384 kinases from the human genome (Homo sapiens, UniProt P23443)", "T3 construct": "purchased Eurofin/DiscoverX", "conditions": "kinase S6K1 (Entrez RPS6KB1)", "outline": "as §1"}, "[4]": {"target": "T4, 384 kinases from the human genome (Homo sapiens, UniProt P27037)", "T4 construct": "purchased Eurofin/DiscoverX", "conditions": "kinase ACVR2A (Entrez ACVR2A)", "outline": "as §1"}, "[5]": {"target": "T5, 384 kinases from the human genome (Homo sapiens, UniProt P27448)", "T5 construct": "purchased Eurofin/DiscoverX", "conditions": "kinase MARK3 (Entrez MARK3)", "outline": "as §1"}, "[6]": {"target": "T6, 384 kinases from the human genome (Homo sapiens, UniProt P43403)", "T6 construct": "purchased Eurofin/DiscoverX", "conditions": "kinase ZAP70 (Entrez ZAP70)", "outline": "as §1"}, "[7]": {"target": "T7, 384 kinases from the human genome (Homo sapiens, UniProt Q00526)", "T7 construct": "purchased Eurofin/DiscoverX", "T7 sequence (Q00526 whole entry)": "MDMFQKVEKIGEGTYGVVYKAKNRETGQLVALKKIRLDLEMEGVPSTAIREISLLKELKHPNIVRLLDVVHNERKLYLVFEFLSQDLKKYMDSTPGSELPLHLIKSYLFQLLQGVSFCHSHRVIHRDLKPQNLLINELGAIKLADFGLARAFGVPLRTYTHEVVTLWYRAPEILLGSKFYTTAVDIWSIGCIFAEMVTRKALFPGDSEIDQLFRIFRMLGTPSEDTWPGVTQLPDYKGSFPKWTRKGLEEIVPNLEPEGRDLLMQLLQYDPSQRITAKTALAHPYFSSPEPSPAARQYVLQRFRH", "conditions": "kinase CDK3 (Entrez CDK3)", "outline": "as §1"}, "[8]": {"target": "T8, 384 kinases from the human genome (Homo sapiens, UniProt Q00535)", "T8 construct": "purchased Eurofin/DiscoverX", "T8 sequence (Q00535 whole entry)": "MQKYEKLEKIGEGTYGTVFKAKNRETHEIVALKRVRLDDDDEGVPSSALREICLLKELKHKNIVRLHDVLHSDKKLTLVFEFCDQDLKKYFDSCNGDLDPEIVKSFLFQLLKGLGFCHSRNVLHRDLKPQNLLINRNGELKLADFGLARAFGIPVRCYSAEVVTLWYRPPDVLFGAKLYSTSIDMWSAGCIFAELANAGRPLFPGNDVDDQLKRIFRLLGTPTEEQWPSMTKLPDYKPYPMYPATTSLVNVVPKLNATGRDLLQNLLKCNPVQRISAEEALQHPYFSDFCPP", "conditions": "kinase CDK5 (Entrez CDK5)", "outline": "as §1"}, "[9]": {"target": "T9, 384 kinases from the human genome (Homo sapiens, UniProt Q05655)", "T9 construct": "purchased Eurofin/DiscoverX", "conditions": "kinase PRKCD (Entrez PRKCD)", "outline": "as §1"}, "[10]": {"target": "T10, 384 kinases from the human genome (Homo sapiens, UniProt Q13163)", "T10 construct": "purchased Eurofin/DiscoverX", "T10 sequence (Q13163 whole entry)": "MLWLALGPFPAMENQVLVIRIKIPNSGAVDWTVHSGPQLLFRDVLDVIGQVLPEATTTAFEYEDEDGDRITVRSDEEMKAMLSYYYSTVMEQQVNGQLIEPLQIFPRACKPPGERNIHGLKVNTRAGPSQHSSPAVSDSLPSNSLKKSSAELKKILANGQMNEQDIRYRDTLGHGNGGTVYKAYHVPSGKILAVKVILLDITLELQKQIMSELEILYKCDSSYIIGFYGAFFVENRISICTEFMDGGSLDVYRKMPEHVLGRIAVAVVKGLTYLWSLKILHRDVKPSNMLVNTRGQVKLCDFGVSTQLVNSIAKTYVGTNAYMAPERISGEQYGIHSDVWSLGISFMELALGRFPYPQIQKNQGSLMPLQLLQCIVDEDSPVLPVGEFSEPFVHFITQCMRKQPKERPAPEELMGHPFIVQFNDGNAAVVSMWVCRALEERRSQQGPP", "conditions": "kinase MEK5 (Entrez MAP2K5)", "outline": "as §1"}, "[11]": {"target": "T11, 384 kinases from the human genome (Homo sapiens, UniProt Q13177)", "T11 construct": "purchased Eurofin/DiscoverX", "conditions": "kinase PAK2 (Entrez PAK2)", "outline": "as §1"}, "[12]": {"target": "T12, 384 kinases from the human genome (Homo sapiens, UniProt Q13557)", "T12 construct": "purchased Eurofin/DiscoverX", "conditions": "kinase CAMK2D (Entrez CAMK2D)", "outline": "as §1"}, "[13]": {"target": "T13, 384 kinases from the human genome (Homo sapiens, UniProt Q14004)", "T13 construct": "purchased Eurofin/DiscoverX", "conditions": "kinase CDC2L5 (Entrez CDK13)", "outline": "as §1"}, "[14]": {"target": "T14, 384 kinases from the human genome (Homo sapiens, UniProt Q15303)", "T14 construct": "purchased Eurofin/DiscoverX", "conditions": "kinase ERBB4 (Entrez ERBB4)", "outline": "as §1"}, "[15]": {"target": "T15, 384 kinases from the human genome (Homo sapiens, UniProt Q2M2I8)", "T15 construct": "purchased Eurofin/DiscoverX", "T15 sequence (Q2M2I8 whole entry)": "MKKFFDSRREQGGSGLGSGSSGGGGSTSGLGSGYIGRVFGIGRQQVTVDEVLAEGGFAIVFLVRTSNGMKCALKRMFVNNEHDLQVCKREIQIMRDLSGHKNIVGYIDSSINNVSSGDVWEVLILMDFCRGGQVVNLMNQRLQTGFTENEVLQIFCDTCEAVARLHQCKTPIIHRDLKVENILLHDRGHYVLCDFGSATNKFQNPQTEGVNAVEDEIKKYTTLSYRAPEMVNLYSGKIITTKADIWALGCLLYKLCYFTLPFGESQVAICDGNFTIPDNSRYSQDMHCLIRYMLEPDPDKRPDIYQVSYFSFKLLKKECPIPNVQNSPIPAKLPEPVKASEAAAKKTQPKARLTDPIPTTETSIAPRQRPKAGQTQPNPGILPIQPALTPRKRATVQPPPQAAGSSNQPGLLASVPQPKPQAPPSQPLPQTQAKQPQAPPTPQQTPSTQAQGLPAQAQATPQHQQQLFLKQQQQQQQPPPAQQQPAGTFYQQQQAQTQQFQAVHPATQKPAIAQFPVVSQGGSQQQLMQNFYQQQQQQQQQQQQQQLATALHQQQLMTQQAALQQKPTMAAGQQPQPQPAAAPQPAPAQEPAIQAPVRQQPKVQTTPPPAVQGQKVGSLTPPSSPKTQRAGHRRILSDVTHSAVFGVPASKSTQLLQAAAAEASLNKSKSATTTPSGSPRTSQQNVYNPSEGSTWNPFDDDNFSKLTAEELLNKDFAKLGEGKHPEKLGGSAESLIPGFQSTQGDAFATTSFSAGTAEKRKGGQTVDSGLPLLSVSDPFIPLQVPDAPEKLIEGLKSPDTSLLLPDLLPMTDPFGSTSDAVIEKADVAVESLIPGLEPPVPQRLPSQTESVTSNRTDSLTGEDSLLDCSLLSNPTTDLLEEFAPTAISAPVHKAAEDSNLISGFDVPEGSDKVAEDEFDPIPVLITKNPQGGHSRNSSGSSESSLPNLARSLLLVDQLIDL", "outline": "as §1"}, "[16]": {"target": "T16, 384 kinases from the human genome (Homo sapiens, UniProt Q56UN5)", "T16 construct": "purchased Eurofin/DiscoverX", "T16 sequence (Q56UN5 whole entry)": "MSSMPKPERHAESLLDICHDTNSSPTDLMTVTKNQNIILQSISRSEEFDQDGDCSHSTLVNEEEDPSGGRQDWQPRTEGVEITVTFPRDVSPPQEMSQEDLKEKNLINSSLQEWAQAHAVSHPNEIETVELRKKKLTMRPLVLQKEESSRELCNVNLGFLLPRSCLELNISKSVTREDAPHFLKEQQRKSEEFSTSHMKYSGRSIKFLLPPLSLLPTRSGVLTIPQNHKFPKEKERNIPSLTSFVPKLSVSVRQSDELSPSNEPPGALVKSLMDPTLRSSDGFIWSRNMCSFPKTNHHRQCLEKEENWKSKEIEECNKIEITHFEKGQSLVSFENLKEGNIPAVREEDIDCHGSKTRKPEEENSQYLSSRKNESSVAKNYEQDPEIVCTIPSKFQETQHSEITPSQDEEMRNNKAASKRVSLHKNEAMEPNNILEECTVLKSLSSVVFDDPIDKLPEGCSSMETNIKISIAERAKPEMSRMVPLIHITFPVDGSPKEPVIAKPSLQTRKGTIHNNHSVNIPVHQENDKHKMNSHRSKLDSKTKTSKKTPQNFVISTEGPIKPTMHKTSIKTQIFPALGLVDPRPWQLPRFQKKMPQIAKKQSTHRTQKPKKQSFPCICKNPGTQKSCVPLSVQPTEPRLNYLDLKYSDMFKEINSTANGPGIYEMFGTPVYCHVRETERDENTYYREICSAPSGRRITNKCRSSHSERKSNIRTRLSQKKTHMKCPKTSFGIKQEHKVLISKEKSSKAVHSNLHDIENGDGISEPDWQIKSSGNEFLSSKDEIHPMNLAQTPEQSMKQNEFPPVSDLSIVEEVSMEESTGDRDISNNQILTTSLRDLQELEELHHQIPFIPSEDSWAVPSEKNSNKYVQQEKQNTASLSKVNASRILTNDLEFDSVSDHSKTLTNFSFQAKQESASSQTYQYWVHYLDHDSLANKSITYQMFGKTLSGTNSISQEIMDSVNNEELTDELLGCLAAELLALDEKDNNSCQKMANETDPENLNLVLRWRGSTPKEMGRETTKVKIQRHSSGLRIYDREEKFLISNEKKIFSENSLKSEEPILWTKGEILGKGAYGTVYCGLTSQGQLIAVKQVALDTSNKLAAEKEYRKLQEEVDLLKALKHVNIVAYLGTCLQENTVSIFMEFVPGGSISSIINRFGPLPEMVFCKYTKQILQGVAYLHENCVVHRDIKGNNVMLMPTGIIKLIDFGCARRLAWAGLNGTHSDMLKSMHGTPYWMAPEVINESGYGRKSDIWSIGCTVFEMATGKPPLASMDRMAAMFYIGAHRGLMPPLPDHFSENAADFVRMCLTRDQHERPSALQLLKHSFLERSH", "conditions": "kinase YSK4 (Entrez MAP3K19)", "outline": "as §1"}, "[17]": {"target": "T17, 384 kinases from the human genome (Homo sapiens, UniProt Q6P2M8)", "T17 construct": "purchased Eurofin/DiscoverX", "conditions": "kinase CAMK1B (Entrez PNCK)", "outline": "as §1"}, "[18]": {"target": "T18, 384 kinases from the human genome (Homo sapiens, UniProt Q86UX6)", "T18 construct": "purchased Eurofin/DiscoverX", "T18 sequence (Q86UX6 whole entry)": "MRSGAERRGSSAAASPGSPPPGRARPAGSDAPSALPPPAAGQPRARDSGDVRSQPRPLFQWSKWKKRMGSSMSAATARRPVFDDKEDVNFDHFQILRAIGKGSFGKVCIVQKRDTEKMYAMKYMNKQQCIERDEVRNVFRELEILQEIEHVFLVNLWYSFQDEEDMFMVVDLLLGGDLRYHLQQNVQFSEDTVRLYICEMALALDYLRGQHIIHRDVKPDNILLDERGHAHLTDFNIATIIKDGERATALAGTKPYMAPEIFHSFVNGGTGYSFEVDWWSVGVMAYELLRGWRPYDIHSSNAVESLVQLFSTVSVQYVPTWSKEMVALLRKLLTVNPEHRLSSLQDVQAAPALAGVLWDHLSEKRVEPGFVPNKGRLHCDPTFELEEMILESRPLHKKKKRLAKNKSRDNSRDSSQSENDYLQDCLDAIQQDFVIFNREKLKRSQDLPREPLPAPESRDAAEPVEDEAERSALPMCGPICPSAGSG", "conditions": "kinase YANK3 (Entrez STK32C)", "outline": "as §1"}, "[19]": {"target": "T19, 384 kinases from the human genome (Homo sapiens, UniProt Q8IY84)", "T19 construct": "purchased Eurofin/DiscoverX", "T19 sequence (Q8IY84 whole entry)": "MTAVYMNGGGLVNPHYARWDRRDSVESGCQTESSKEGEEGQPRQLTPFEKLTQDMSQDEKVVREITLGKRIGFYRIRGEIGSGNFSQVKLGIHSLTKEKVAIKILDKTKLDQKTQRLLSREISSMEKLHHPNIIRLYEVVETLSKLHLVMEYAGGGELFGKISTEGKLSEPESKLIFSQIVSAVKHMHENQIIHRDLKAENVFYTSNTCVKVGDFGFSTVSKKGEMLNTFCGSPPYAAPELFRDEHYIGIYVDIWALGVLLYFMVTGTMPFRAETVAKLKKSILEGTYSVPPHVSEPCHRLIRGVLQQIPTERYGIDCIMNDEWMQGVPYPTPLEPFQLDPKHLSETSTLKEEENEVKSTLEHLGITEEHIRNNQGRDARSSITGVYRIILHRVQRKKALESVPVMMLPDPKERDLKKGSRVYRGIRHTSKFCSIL", "conditions": "kinase NIM1 (Entrez MGC42105)", "outline": "as §1"}, "[20]": {"target": "T20, 384 kinases from the human genome (Homo sapiens, UniProt Q8NE63)", "T20 construct": "purchased Eurofin/DiscoverX", "conditions": "kinase HIPK4 (Entrez HIPK4)", "outline": "as §1"}, "[21]": {"target": "T21, 384 kinases from the human genome (Homo sapiens, UniProt Q92630)", "T21 construct": "purchased Eurofin/DiscoverX", "conditions": "kinase DYRK2 (Entrez DYRK2)", "outline": "as §1"}, "[22]": {"target": "T22, 384 kinases from the human genome (Homo sapiens, UniProt Q96BR1)", "T22 construct": "purchased Eurofin/DiscoverX", "conditions": "kinase SGK3 (Entrez SGK3)", "outline": "as §1"}, "[23]": {"target": "T23, 384 kinases from the human genome (Homo sapiens, UniProt Q96NX5)", "T23 construct": "purchased Eurofin/DiscoverX", "conditions": "kinase CAMK1G (Entrez CAMK1G)", "outline": "as §1"}, "[24]": {"target": "T24, 384 kinases from the human genome (Homo sapiens, UniProt Q9H2K8)", "T24 construct": "purchased Eurofin/DiscoverX", "conditions": "kinase TAOK3 (Entrez TAOK3)", "outline": "as §1"}, "[25]": {"target": "T25, 384 kinases from the human genome (Homo sapiens, UniProt Q9Y463)", "T25 construct": "purchased Eurofin/DiscoverX", "T25 sequence (Q9Y463 whole entry)": "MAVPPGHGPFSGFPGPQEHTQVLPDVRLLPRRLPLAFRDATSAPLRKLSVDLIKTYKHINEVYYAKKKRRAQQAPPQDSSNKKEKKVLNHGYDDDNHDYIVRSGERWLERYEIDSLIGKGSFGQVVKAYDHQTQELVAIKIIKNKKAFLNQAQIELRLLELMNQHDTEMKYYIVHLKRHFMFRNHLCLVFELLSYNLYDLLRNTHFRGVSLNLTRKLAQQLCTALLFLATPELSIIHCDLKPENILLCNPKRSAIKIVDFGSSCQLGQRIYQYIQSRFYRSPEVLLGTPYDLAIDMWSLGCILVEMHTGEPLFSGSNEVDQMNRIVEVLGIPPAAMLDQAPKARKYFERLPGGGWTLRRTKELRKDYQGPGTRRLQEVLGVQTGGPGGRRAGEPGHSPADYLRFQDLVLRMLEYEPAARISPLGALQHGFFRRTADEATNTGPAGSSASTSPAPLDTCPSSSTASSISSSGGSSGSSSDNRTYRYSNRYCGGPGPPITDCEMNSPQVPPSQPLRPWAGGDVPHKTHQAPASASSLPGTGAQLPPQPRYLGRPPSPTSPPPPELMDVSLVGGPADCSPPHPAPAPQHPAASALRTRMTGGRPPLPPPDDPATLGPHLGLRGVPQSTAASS", "conditions": "kinase DYRK1B (Entrez DYRK1B)", "outline": "as §1"}, "[26]": {"target": "T26, 384 kinases from the human genome (Homo sapiens, UniProt Q9Y5S2)", "T26 construct": "purchased Eurofin/DiscoverX", "conditions": "kinase MRCKB (Entrez CDC42BPB)", "outline": "as §1"}}, "data": [{"smiles": "CC(C)C(=O)N1CCN(c2ccc(NC(=O)c3cc4ccccc4o3)cc2Cl)CC1", "note": "[Compound 21]", "values": [{"measurement": "Percent Control", "setting": "[1]", "result": 97, "unit": "%"}, {"measurement": "Percent Control", "setting": "[2]", "result": 83, "unit": "%"}, {"measurement": "Percent Control", "setting": "[3]", "result": 94, "unit": "%"}, {"measurement": "Percent Control", "setting": "[4]", "result": 100, "unit": "%"}, {"measurement": "Percent Control", "setting": "[5]", "result": 100, "unit": "%"}, {"measurement": "Percent Control", "setting": "[6]", "result": 98, "unit": "%"}, {"measurement": "Percent Control", "setting": "[7]", "result": 99, "unit": "%"}, {"measurement": "Percent Control", "setting": "[8]", "result": 94, "unit": "%"}, {"measurement": "Percent Control", "setting": "[9]", "result": 100, "unit": "%"}, {"measurement": "Percent Control", "setting": "[10]", "result": 72, "unit": "%"}, {"measurement": "Percent Control", "setting": "[11]", "result": 100, "unit": "%"}, {"measurement": "Percent Control", "setting": "[12]", "result": 92, "unit": "%"}, {"measurement": "Percent Control", "setting": "[13]", "result": 100, "unit": "%"}, {"measurement": "Percent Control", "setting": "[14]", "result": 91, "unit": "%"}, {"measurement": "binding to AAK1", "setting": "[15]; 10 µM of 21", "result": "failed to bind"}, {"measurement": "Percent Control", "setting": "[15]; kinase AAK1 (Entrez AAK1)", "result": 100, "unit": "%"}, {"measurement": "Percent Control", "setting": "[16]", "result": 98, "unit": "%"}, {"measurement": "Percent Control", "setting": "[17]", "result": 77, "unit": "%"}, {"measurement": "Percent Control", "setting": "[18]", "result": 100, "unit": "%"}, {"measurement": "Percent Control", "setting": "[19]", "result": 77, "unit": "%"}, {"measurement": "Percent Control", "setting": "[20]", "result": 100, "unit": "%"}, {"measurement": "Percent Control", "setting": "[21]", "result": 94, "unit": "%"}, {"measurement": "Percent Control", "setting": "[22]", "result": 91, "unit": "%"}, {"measurement": "Percent Control", "setting": "[23]", "result": 100, "unit": "%"}, {"measurement": "Percent Control", "setting": "[24]", "result": 100, "unit": "%"}, {"measurement": "Percent Control", "setting": "[25]", "result": 79, "unit": "%"}, {"measurement": "Percent Control", "setting": "[26]", "result": 94, "unit": "%"}]}]}
